Assay results: patent US20040209891A1, “Treatment of type 2 diabetes with inhibitors of dipeptidyl peptidase IV” (priority 2001, published 2004)
Structures can show the parent of a compound that is named as a salt.

What was measured:
ZDF rat = assay: Effect of long-term inhibition of DP-IV in ZDF rat (four weeks dosing); format: in vivo; conditions: male ZDF rats; for Glycaemia: day of development of significant hyperglycaemia: obese control hyperglycaemic at day 8
Text: Control animals are given vehicle. A group of untreated lean rats is used as a comparison. Glycaemia, insulinaemia, body weight, food and water intake, and plasma triglyceride and free fatty acid levels are monitored throughout the study.

Human DP-IV = Human DP-IV (Homo sapiens, UniProt P27487); format: biochemical; conditions: substrate Ala-Pro-AFC, fluorescence
Chain of Human DP-IV (P27487 whole entry): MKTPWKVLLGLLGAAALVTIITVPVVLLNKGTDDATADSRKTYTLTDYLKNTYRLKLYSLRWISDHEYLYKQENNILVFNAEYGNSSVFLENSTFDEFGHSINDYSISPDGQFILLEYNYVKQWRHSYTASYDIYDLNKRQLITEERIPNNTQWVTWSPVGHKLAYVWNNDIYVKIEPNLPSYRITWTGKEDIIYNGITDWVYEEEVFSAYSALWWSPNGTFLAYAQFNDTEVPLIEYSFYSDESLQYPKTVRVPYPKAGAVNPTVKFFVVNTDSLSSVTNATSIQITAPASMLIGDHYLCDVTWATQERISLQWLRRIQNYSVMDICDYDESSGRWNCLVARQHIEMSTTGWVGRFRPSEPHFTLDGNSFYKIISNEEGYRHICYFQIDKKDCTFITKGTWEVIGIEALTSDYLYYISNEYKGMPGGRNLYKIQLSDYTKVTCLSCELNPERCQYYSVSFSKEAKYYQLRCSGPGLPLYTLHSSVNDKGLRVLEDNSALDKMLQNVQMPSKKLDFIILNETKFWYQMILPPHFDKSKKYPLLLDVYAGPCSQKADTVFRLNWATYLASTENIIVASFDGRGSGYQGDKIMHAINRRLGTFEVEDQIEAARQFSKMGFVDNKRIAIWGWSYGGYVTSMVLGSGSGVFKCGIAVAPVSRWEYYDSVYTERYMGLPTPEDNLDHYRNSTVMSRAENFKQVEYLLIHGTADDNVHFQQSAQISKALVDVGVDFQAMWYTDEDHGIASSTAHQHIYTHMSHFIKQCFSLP
Procedure: The in vitro inhibitory action of the compounds is determined in a fluorimetric assay. Human DP-IV is incubated with a standard substrate, Ala-Pro-AFC, in the presence of various concentrations of the inhibitor. The reaction is monitored by measuring the increase in fluorescence due to the reaction product, AFC. Using standard manipulations, an inhibitory constant, Ki, is determined.

Q: Which results are given for `CC(C)(C)[C@H](N)C(=O)N1CCC[C@H]1C#N` [Example 1A, (2S)-1-((2′S)-2′-amino-3′,3′-dimethylbutanoyl)pyrrolidine-2-carbonitrile hydrochloride]?
A: Glycaemia: day of development of significant hyperglycaemia (ZDF rat; 10 mg/kg p.o. once daily): 15 days; Insulinaemia: day on which peak insulin level is reached (ZDF rat; 10 mg/kg p.o. once daily, obese control peak by day 8): 11 days; Glycaemia: day of development of significant hyperglycaemia (ZDF rat; 10 mg/kg p.o. twice daily): 24 days

Q: Which Ki (Human DP-IV) does the source give for `N#C[C@@H]1CCCN1C(=O)[C@@H](N)CCCNC(=O)c1cnccn1` [Example 1B, (2S)-1-((2′S)-2′-amino-5′-pyrazinecarbonylaminopentanoyl)pyrrolidine-2-carbonitrile trifluoroacetate] here?
A: 0.4 nM
